Patent US10683311B2 (priority 2015, dated 2020)

Experiment: log P by HPLC on reversed-phase column (C18), EEC Directive 79/831 Annex V.A8
Assay type: physicochemical
Details: for chromatographic logP: reversed-phase HPLC column (C18)
Description: In table 1, the log P values were determined in accordance with EEC Directive 79/831 Annex V.A8 by HPLC (High Performance Liquid Chromatography) on a reversed-phase column (C18), using the methods described below:
Method A: temperature: 40° C.; mobile phases: 0.1% aqueous formic acid and acetonitrile; linear gradient from 10% acetonitrile to 95% acetonitrile;
Method B: temperature: 40° C.; mobile phases: 0.001 molar ammonium acetate solution in water and acetonitrile; linear gradient from 10% acetonitrile to 95% acetonitrile.
Calibration was carried out using unbranched alkan-2-ones (comprising 3 to 16 carbon atoms) with known log P values (determination of the log P values by the retention times using linear interpolation between two successive alkanones). lambda-max-values were determined using UV-spectra from 200 nm to 400 nm and the peak values of the chromatographic signals.

[1] = Method A: 40° C., 0.1% aqueous formic acid and acetonitrile

Structure (SMILES): Cc1nc2c(F)c(F)ccc2nc1Oc1ccc(F)cc1[Si](C)(C)C [I.100]
- logP [1]: 5.57

Structure (SMILES): Cc1nc2c(F)c(F)ccc2nc1Oc1ccc(Cl)cc1[Si](C)(C)C [I.101]
- logP [1]: 6.11

Structure (SMILES): Cc1nc2c(F)c(F)ccc2nc1Oc1ccc(Cl)cc1[Si](C)(C)O [I.102]
- logP [1]: 4.01

Structure (SMILES): Cc1nc2c(F)c(F)ccc2nc1Oc1c(Cl)cccc1[Si](C)(C)O [I.103]
- logP [1]: 3.96

Structure (SMILES): Cc1cccc([Si](C)(C)O)c1Oc1nc2ccc(F)c(F)c2nc1C [I.104]
- logP [1]: 3.73

Structure (SMILES): Cc1nc2c(F)c(F)ccc2nc1Oc1cc(F)ccc1[Si](C)(C)O [I.105]
- logP [1]: 3.58

Structure (SMILES): Cc1nc2c(F)c(F)ccc2nc1Oc1c(Cl)cccc1[Si](C)(C)C [I.106]
- logP [1]: 6.07

Structure (SMILES): Cc1cccc([Si](C)(C)C)c1Oc1nc2ccc(F)c(F)c2nc1C [I.107]
- logP [1]: 5.88

Structure (SMILES): Cc1nc2c(F)c(F)ccc2nc1Oc1cc(F)ccc1[Si](C)(C)C [I.108]
- logP [1]: 5.57

Structure (SMILES): Cc1nc2ccccc2nc1Oc1cccc(F)c1[Si](C)(C)O [I.109]
- logP [1]: 3.25

Structure (SMILES): Cc1nc2ccccc2nc1Oc1ccccc1[Si](C)(C)C [I.110]
- logP [1]: 5.31

Structure (SMILES): Cc1nc2ccccc2nc1Oc1cccc(F)c1[Si](C)(C)C [I.111]
- logP [1]: 5.45

Structure (SMILES): Cc1nc2ccccc2nc1Oc1ccccc1[Si](C)(C)O [I.112]
- logP [1]: 3.01

Structure (SMILES): Cc1nc2ccccc2nc1Oc1cccc(F)c1[Si](C)(C)c1cccs1 [I.113]
- logP [1]: 5.51

Structure (SMILES): COc1ccc([Si](C)(C)c2c(F)cccc2Oc2nc3ccccc3nc2C)cc1 [I.114]
- logP [1]: 5.35

Structure (SMILES): Cc1nc2ccccc2nc1Oc1cccc(F)c1[Si](C)(C)c1ccccc1 [I.115]
- logP [1]: 5.59

Structure (SMILES): C[Si](C)(O)c1c(F)cccc1Oc1cnc2ccsc2c1 [I.117]
- logP [1]: 2.80

Structure (SMILES): C[Si](C)(C)c1c(F)cccc1Oc1cnc2ccsc2c1 [I.118]
- logP [1]: 5.22

Structure (SMILES): C[Si](C)(O)c1c(F)cccc1Oc1cnc2sccc2c1 [I.119]
- logP [1]: 3.09

Structure (SMILES): C[Si](C)(C)c1c(F)cccc1Oc1cnc2sccc2c1 [I.120]
- logP [1]: 5.45

Structure (SMILES): C[Si](C)(O)c1c(F)cccc1Oc1cnc2ccnn2c1 [I.121]
- logP [1]: 2.07

Structure (SMILES): C[Si](C)(C)c1c(F)cccc1Oc1cnc2ccnn2c1 [I.122]
- logP [1]: 4.23

Structure (SMILES): C[Si](C)(C)c1ccccc1Oc1cnc2ccnn2c1 [I.123]
- logP [1]: 4.11

Structure (SMILES): C[Si](C)(C)c1ccccc1Oc1cnc2nccn2c1 [I.124]
- logP [1]: 2.78

Structure (SMILES): C[Si](C)(O)c1ccccc1Oc1cnc2nccn2c1 [I.125]
- logP [1]: 2.10

Structure (SMILES): C[Si](C)(O)c1ccccc1Oc1cnc2c(F)cnn2c1 [I.126]
- logP [1]: 2.50

Structure (SMILES): C[Si](C)(O)c1c(F)cccc1Oc1cnc2c(F)cnn2c1 [I.127]
- logP [1]: 2.60

Structure (SMILES): C[Si](C)(C)c1c(F)cccc1Oc1cnc2c(F)cnn2c1 [I.128]
- logP [1]: 4.61

Structure (SMILES): C[Si](C)(C)c1ccccc1Oc1cnc2c(F)cnn2c1 [I.129]
- logP [1]: 4.56

Structure (SMILES): Cc1c(Cc2ccccc2[Si](C)(C)C)cnc2ccccc12 [I.130]
- logP [1]: 3.19

Structure (SMILES): C[Si](C)(C)c1c(F)cccc1Sc1cnc2ccccc2c1 [I.131]
- logP [1]: 5.72

Structure (SMILES): C[Si](C)(C)c1c(F)cccc1[S+]([O-])c1cnc2ccccc2c1 (stereo not drawn) [I.132]
- logP [1]: 3.63

Structure (SMILES): C[Si](C)(C)c1c(F)cccc1C(O)c1cnc2ccccc2c1 (stereo not drawn) [I.133]
- logP [1]: 4.16

Structure (SMILES): Cc1nc2ccccc2cc1Oc1ccc(Cl)cc1[Si](C)(C)C [I.134]
- logP [1]: 5.68

Structure (SMILES): Cc1nc2ccccc2cc1Oc1ccc(-c2ccccc2)cc1[Si](C)(C)C [I.135]
- logP [1]: 6.27

Structure (SMILES): Cc1nc2ccccc2cc1Oc1ccc(C2CC2)cc1[Si](C)(C)C [I.136]
- logP [1]: 5.68

Structure (SMILES): C=Cc1ccc(Oc2cc3ccccc3nc2C)c([Si](C)(C)C)c1 [I.137]
- logP [1]: 5.51

Structure (SMILES): Cc1nc2ccccc2cc1Oc1ccc(-c2ccsc2)cc1[Si](C)(C)C [I.138]
- logP [1]: 5.85

Structure (SMILES): Cc1nc2ccccc2cc1Cc1ccccc1[Si](C)(C)C [I.139]
- logP [1]: 2.76

Structure (SMILES): Cc1nc2ccccc2cc1Cc1ccccc1[Si](C)(C)c1ccccc1 [I.140]
- logP [1]: 2.88

Structure (SMILES): C[Si](C)(c1ccccc1)c1ccccc1Cc1cnc2cccnc2c1 [I.141]
- logP [1]: 4.14

Structure (SMILES): C[Si](C)(Cc1ccccc1)c1ccccc1Cc1cnc2ccccc2c1 [I.142]
- logP [1]: 4.94

Structure (SMILES): C[Si](C)(c1ccc(Cc2ccccc2)cc1)c1ccccc1Cc1cnc2ccccc2c1 [I.143]
- logP [1]: 5.78

Structure (SMILES): O=Cc1cccc(Oc2cnc3ccccc3c2)c1I [II.01A]
- chromatographic logP (logP Method A): 3.29

Structure (SMILES): O=Cc1cccc(Oc2cnc3c(F)c(F)ccc3n2)c1Br [II.01B]
- chromatographic logP (logP Method A): 3.48

Structure (SMILES): OCc1cccc(Oc2cnc3ccccc3c2)c1I [II.02A]
- chromatographic logP (logP Method A): 2.59

Structure (SMILES): Cc1nc2ccccc2cc1Oc1cccc(CCO)c1Br [II.03A]
- chromatographic logP (logP Method A): 2.14

Structure (SMILES): Brc1c(COC2CCCCO2)cccc1Nc1cnc2ccccc2c1 (stereo not drawn) [II.04A, N-{2-bromo-3-[(tetrahydro-2H-pyran-2-yloxy)methyl]phenyl}quinolin-3-amine]
- chromatographic logP (Method B: 40° C., 0.001 molar ammonium acetate solution in water and acetonitrile): 4.13
- chromatographic logP (logP Method B): 4.13

Structure (SMILES): Ic1c(COC2CCCCO2)cccc1Oc1cnc2ccccc2c1 (stereo not drawn) [II.05A]
- chromatographic logP (logP Method B): 4.56

Structure (SMILES): Cc1nc2c(F)c(F)ccc2cc1Oc1cc([N+](=O)[O-])ccc1Br [II.06A]
- logP (logP Method A): 4.04

Structure (SMILES): Cc1nc2ccccc2cc1Oc1cccc(CCCl)c1Br [II.08A]
- chromatographic logP (logP Method A): 3.99

Structure (SMILES): Fc1cccc(Oc2cnc3ccccc3c2)c1I [IIa.01, 3-(3-fluoro-2-iodophenoxy)quinoline]
- chromatographic logP [1]: 3.71

Structure (SMILES): Ic1ccccc1Oc1cnc2ccccc2c1 [IIa.02, 3-(2-iodophenoxy)quinoline]
- chromatographic logP [1]: 3.71

Structure (SMILES): Brc1ccccc1Oc1cnc2ccccc2c1 [IIa.03, 3-(2-bromophenoxy)quinoline]
- chromatographic logP [1]: 3.47

Structure (SMILES): Fc1cccc2cc(Oc3ccccc3Br)cnc12 [IIa.04, 3-(2-bromophenoxy)-8-fluoroquinoline]
- chromatographic logP [1]: 3.61

Structure (SMILES): Cc1nc2c(F)cccc2cc1Oc1ccccc1Br [IIa.05, 3-(2-bromophenoxy)-8-fluoro-2-methylquinoline]
- chromatographic logP [1]: 3.96

Structure (SMILES): Fc1ccc2cc(Oc3ccccc3Br)cnc2c1F [IIa.06, 3-(2-bromophenoxy)-7,8-difluoroquinoline]
- chromatographic logP [1]: 3.92

Structure (SMILES): Cc1nc2c(F)c(F)ccc2cc1Oc1ccccc1Br [IIa.07, 3-(2-bromophenoxy)-7,8-difluoro-2-methylquinoline]
- chromatographic logP [1]: 4.25

Structure (SMILES): Cc1nc2ccccc2cc1Oc1ccccc1Br [IIa.08, 3-(2-bromophenoxy)-2-methylquinoline]
- chromatographic logP [1]: 3.96

Structure (SMILES): Cc1nc2c(F)c(F)ccc2cc1Oc1c(F)cccc1Br [IIa.09, 3-(2-bromo-6-fluorophenoxy)-7,8-difluoro-2-methylquinoline]
- chromatographic logP [1]: 4.25

Structure (SMILES): Cc1nc2c(F)c(F)ccc2cc1Oc1cc(F)ccc1Br [IIa.10, 3-(2-bromo-5-fluorophenoxy)-7,8-difluoro-2-methylquinoline]
- chromatographic logP [1]: 4.34

Structure (SMILES): Fc1ccc(Oc2cnc3c(Cl)cccc3c2)c(Br)c1 [IIa.11, 3-(2-bromo-4-fluorophenoxy)-8-chloroquinoline]
- chromatographic logP [1]: 4.18

Structure (SMILES): Cc1nc2c(F)c(F)ccc2cc1Oc1ccc(F)cc1Br [IIa.12, 3-(2-bromo-4-fluorophenoxy)-7,8-difluoro-2-methylquinoline]
- chromatographic logP [1]: 4.25

Structure (SMILES): Cc1nc2ccccc2cc1Oc1ccc(F)cc1Br [IIa.13, 3-(2-bromo-4-fluorophenoxy)-2-methylquinoline]
- chromatographic logP [1]: 3.35

Structure (SMILES): COc1cccc(Oc2cc3ccc(F)c(F)c3nc2C)c1Br [IIa.14, 3-(2-bromo-3-methoxyphenoxy)-7,8-difluoro-2-methylquinoline]
- chromatographic logP [1]: 4.11

Structure (SMILES): Fc1cccc(Oc2cnc3c(F)c(F)ccc3c2)c1Br [IIa.15, 3-(2-bromo-3-fluorophenoxy)-7,8-difluoroquinoline]
- chromatographic logP [1]: 3.9

Structure (SMILES): Cc1nc2c(F)c(F)ccc2cc1Oc1cccc(F)c1Br [IIa.16, 3-(2-bromo-3-fluorophenoxy)-7,8-difluoro-2-methylquinoline]
- chromatographic logP [1]: 4.29

Structure (SMILES): Cc1c(Oc2cccc(F)c2Br)cnc2ccccc12 [IIa.17, 3-(2-bromo-3-fluorophenoxy)-4-methylquinoline]
- chromatographic logP [1]: 3.89

Structure (SMILES): Cc1nc2ccccc2cc1Oc1cccc(F)c1Br [IIa.18, 3-(2-bromo-3-fluorophenoxy)-2-methylquinoline]
- chromatographic logP [1]: 3.58

Structure (SMILES): Fc1cccc(Oc2cc3ccccc3nc2C(F)F)c1Br [IIa.19, 3-(2-bromo-3-fluorophenoxy)-2-(difluoromethyl)quinoline]
- chromatographic logP [1]: 3.99

Structure (SMILES): Cc1nc2c(F)c(F)ccc2cc1Oc1cccc(Cl)c1Br [IIa.20, 3-(2-bromo-3-chlorophenoxy)-7,8-difluoro-2-methylquinoline]
- chromatographic logP [1]: 4.72

Structure (SMILES): Cc1nc2ccccc2cc1Oc1cccc(Cl)c1Br [IIa.21, 3-(2-bromo-3-chlorophenoxy)-2-methylquinoline]
- chromatographic logP [1]: 3.99

Structure (SMILES): Fc1cccc(Nc2cc3ccccc3nc2C(F)F)c1Br [IIa.22, N-(2-bromo-3-fluorophenyl)-2-(difluoromethyl)quinolin-3-amine]
- chromatographic logP [1]: 4.34

Structure (SMILES): Fc1ccc(Oc2cnc3c(Cl)cccc3c2)c(Cl)c1 [IIa.23, 8-chloro-3-(2-chloro-4-fluorophenoxy)quinoline]
- chromatographic logP [1]: 4.11

Structure (SMILES): Cc1nc2c(F)c(F)ccc2cc1Oc1cccc(OC(F)(F)F)c1Br [IIa.24, 3-[2-bromo-3-(trifluoromethoxy)phenoxy]-7,8-difluoro-2-methylquinoline]
- chromatographic logP [1]: 4.9

Structure (SMILES): Cc1nc2ccccc2cc1Oc1cccc(OC(F)(F)F)c1Br [IIa.25]
- logP [1]: 4.30

Structure (SMILES): Cc1nc2ccccc2cc1Oc1ccc(Cl)cc1Br [IIa.26, 3-(2-bromo-4-chlorophenoxy)-2-methylquinoline]
- chromatographic logP [1]: 4.13
